# Results taken from patent US9623084B2, “Methods for treating multiple sclerosis” (UNIVERSITY OF SOUTHERN CALIFORNIA, priority 2013, dated 2017).
# Tests used:
# [1] = system: PLP-EAE in SJL/J mice (relapsing-remitting model of MS); test: A(1-7) treatment in the relapsing-remitting PLP-EAE model of MS; type: in vivo; details: FIG. 1C
# From the text: Multiple Sclerosis (MS) is a chronic autoimmune and neurodegenerative disease of the central nervous system (CNS) that is characterized by focal infiltration of leukocytes, including myelin-specific T cells, into the CNS, resulting destruction of myelin, demyelination, oxidative stress, axonal loss and ultimately, clinical symptoms and neurological disability. Experimental autoimmune encephalomyelitis (EAE) is a well-established animal model of MS that mimics many of the features of MS. We evaluated the ability of angiotensin peptide A(1-7) to modulate EAE disease course. For this study we used two common EAE models to study the efficacy of A(1-7), one that replicates the chronic progressive form of MS and the other that follows a relapsing-remitting course of the disease. Mice were immunized with peptides corresponding to major immunodominant regions of two myelin proteins: myelin oligodendrocyte protein 35-55 (MOG-EAE) immunization in C57BL6 mice to induce a chronic progressive disease, or proteolipid protein 139-151 (PLP-EAE) immunization in SJL/J mice induced a relapsing-remitting disease.
# Female SJL/J mice, 10-weeks-old, were immunized subcutaneously in 4 sites on their flank (approximately 50 μl each) with 120 μg PLP-139-151 peptide emulsified in 200 μl CFA at baseline. Mice were anesthetized (as described for MOG-EAE) for the immunizations. SJL/J mice are highly susceptible to EAE induction by this method and require only one immunization to achieve disease in 90-100% of mice.
# PLP-EAE is a relapsing form of disease in which the first acute attack of neurological symptoms occurs at approximately 10-13 days after immunization, peaks between day 15 and 18, is followed by a period of recovery, or remission for about 10 days. 25-40 days after immunization ˜75% of mice develop a second wave of paralysis (relapse). Relapses are often less severe and of shorter duration than the first attack. PLP-EAE mimics the relapsing-remitting form of MS. […]
# [2] = system: MOG-EAE in C57BL/6 mice (chronic progressive model of MS); test: A(1-7) treatment in the chronic progressive MOG-EAE model of MS; type: in vivo; details: for disease course (clinical scores): vs control non-treated immunized mice, up to 50 days post immunization
# [3] = system: Normal human progenitor cells (neurosphere cultures); test: A(1-7) treatment in in vitro neurosphere cultures; type: cell-based
# Method: Normal human progenitor cells were purchased from Clonetics (San Diego, Calif.) and cultured in Neural Progenitor Cell Maintenance Medium (NPMM) [Neural Progenitor Basal Medium containing human recombinant fibroblast growth factor-beta, human recombinant epidermal growth factor, neural survival factors, gentamycin and amphotericin B)]. The cells were thawed, diluted into NPMM and cultured for 24 hours in a 75 cm^2 flask. Until studies to assess differentiation, the cells were cultured in dedifferentiated spheroids.
# In order to assess the differentiation of neuronal cells, the cells were seeded upon wells coated with 0.05% polyethyleneimine (PEI) substrate in borate buffer solution. The wells of a 96 well plate were coated with 0.05 ml of this solution overnight at room temperature. After the incubation, the substrate was removed by aspiration, rinsed with sterile water and allowed to dry before seeding of cells. Four days after plating, the number of cells undergoing differentiation, as assessed by neurite outgrowth) was counted
# [4] = treatment started 10 days after immunization, vs control non-treated immunized mice
substance,measurement,setting,value
"Asp-Arg-Val-Tyr-Ile-His-Pro (DRVYIHP) [A(1-7), angiotensin peptide A(1-7)]",disease course (disability) with duration of treatment,"[1]; PLP-EAE SJL mice, increasing duration of treatment",improves disease course (less disability) with increasing duration of treatment
same,disease severity,[1]; [4],the disease was less severe
same,onset of disease,[1]; [4],delayed onset of disease
same,disease progression and severity,"[2]; 1 mg/kg/day continuous delivery (Alzet pump) vs control, started day 11, FIG. 3",highly effective at inhibiting disease progression and maintaining reduced severity of the disease
same,restoration from disability,"[2]; 2 mg/kg/day continuous delivery vs control saline treated mice, FIG. 3 and FIG. 4A",promotes restoration from disability
same,clinical disease score,"[2]; all doses, twice daily injection, vs control saline treated mice, started day 11, FIG. 2",improved clinical disease score
same,disease course (clinical scores),"[2]; once daily sc 0.5 mg/kg A(1-7) from day 10, FIG. 1A",less severe disease course
same,"clinical disease score, dose comparison","[2]; twice daily injection, total of 1.2 or 4 mg/kg/day vs 0.5 mg/kg/day, started day 11, FIG. 2",more effective in reducing clinical disease score than 0.5 mg/kg/day
same,disease course (clinical scores),"[2]; twice daily sc 0.5 mg/kg A(1-7) from day 10, FIG. 1B",less severe disease course
same,neurite outgrowth and proliferation,"[3]; PEI-coated wells, counted four days after plating, increasing doses of A(1-7), FIG. 4",promotes neurite outgrowth and proliferation with increasing doses of A(1-7)
same,number of cells able to undergo differentiation (proliferation),[3]; suspension culture in the presence of A(1-7) for 4-7 days prior to placement on an adherent substrate,an increase in the number of cells able to undergo differentiation (proliferation)
